We go through 3 compounds from PMC11406518, “Intranasal Administration of Bedaquiline-Loaded Fucosylated Liposomes Provides Anti-Tubercular Activity while Reducing the Potential for Systemic Side Effects” (ACS Infectious Diseases, 2024).

Values after ≈ are worked out from the molar mass of the structure shown.

Details of series [1]: method as in PMID 35112802. Conditions: TargoSphere platform; cited from earlier work.
Series [2] concerns Mtb H37Rv in murine bone marrow-derived macrophages. As to the kind of experiment: in vitro antitubercular activity in infected murine bone marrow-derived macrophages. The format is cell-based, Mycobacterium tuberculosis. The following applies: primary BMDM infected with H37Rv; doses 1 and 0.1 μg/mL.
The conditions of series [3]: estimated; 25 °C; cited from earlier work.
For series [4] the following is noted: estimated; cited from earlier work.
In series [5] the test system is mycobacterial ATP synthase. The arrangement: method as in PMID 20521931. The following applies: selectivity; cited from earlier work.
Series [6] has as its system H37Rv strain of Mtb. Also noted: method as in PMID 22155815. Conditions: cited from earlier work.
The conditions of series [7]: cited from earlier work.
In series [8] the test system is mycobacteria. Conditions: cited from earlier work.
On the set-up of series [9]: method as in PMID 22155815, PMID 34370588. The following applies: in vitro; cited from earlier work.
On the set-up of series [10]: method as in PMID 22155815. Conditions: oral route; cited from earlier work.
The mark [11] stands for this setting: coadministration with high-fat meals.

Regarding `C[C@H]1COc2c(N3CCN(C)CC3)c(F)cc3c(=O)c(C(=O)O)cn1c23` [levofloxacin], in [1], the encapsulation efficiency is listed as 66–80%.

For the compound `COc1nc2ccc(Br)cc2cc1[C@@H](c1ccccc1)[C@@](O)(CCN(C)C)c1cccc2ccccc12` [BDQ, Bedaquiline], in series [2], the “reduction in CFU/mL” value is “significant reductions in CFU/mL”. In addition, the loading capacity in series [1] is 5–7 % of the total mass. Besides, the “solubility in aqueous media” value in [3] is 2 ng/mL (≈ 0.0036 µM). In series [4], the logP is 7.74. The “higher affinity for mycobacterial ATP synthase versus eukaryotic ATP synthase” value in series [5] is > 20,000. In series [6], the “minimum bactericidal concentration (MBC)” value was 0.3 µg/mL (≈ 0.54 µM) and the “minimum inhibitory concentration (MIC)” value is 0.06 µg/mL (≈ 0.108 µM). For the same compound, in series [7] (administered orally), the bioavailability entry was “high bioavailability” and the median tmax is ~5 h. In series [7] (setting [11]), the “increase of AUC with food” value is reported as 2 fold and the “increase of Cmax with food” value is reported as 2 fold. In addition, in series [7] (in vivo), the protein binding is > 99%, the terminal elimination half-life is given as 4–5 months and the volume of distribution is 164 L.

With `CNCCC(O)(c1cccc2ccccc12)C(c1ccccc1)c1cc2cc(Br)ccc2nc1OC` (stereo not drawn) [M2, N-desmethyl-bedaquiline], the “antimycobacterial activity, fold lower than BDQ” value in series [8] was 4–6 fold. Besides, the cytotoxicity and phospholipidogenesis result in [9] was “higher cytotoxicity and phospholipidogenesis”. Moreover, the “AUCLung:AUCplasma ratio” value in [10] is reported as 100–200.

A word on the logP: it is a log measure of how a compound divides between an organic and an aqueous phase.
